This note sets out measurements from article PMC3258152 (Nucleic Acids Research, 2011).

The assay addresses T1, CkoPE (Candidatus Korarchaeum cryptofilum, UniProt B1L4V6).
T1 sequence (B1L4V6 1-117): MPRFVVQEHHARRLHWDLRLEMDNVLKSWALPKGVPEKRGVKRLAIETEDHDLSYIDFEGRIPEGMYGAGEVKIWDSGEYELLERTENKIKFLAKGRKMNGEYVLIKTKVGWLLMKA
Kind of assay: […]'-resection of […]-labelled D22R2 single strand, urea-PAGE. The assay is classed as biochemical.

`O=P(O)(O)O` [phosphate]: the IC50 is roughly 50 mM.

As a reminder, the IC50 is the point on the concentration scale where inhibition reaches its midpoint. A low value points to inhibition by little substance.
